# According to patent publication US9701711B2, “Modulators of protease activated receptors” (THE UNIVERSITY OF QUEENSLAND, priority 2010, dated 2017):
# How the values were obtained:
# PAR2 [1] = target: T1, PAR2 (Homo sapiens, UniProt P55085); conditions: cited from earlier work
# T1 sequence (P55085 26-397): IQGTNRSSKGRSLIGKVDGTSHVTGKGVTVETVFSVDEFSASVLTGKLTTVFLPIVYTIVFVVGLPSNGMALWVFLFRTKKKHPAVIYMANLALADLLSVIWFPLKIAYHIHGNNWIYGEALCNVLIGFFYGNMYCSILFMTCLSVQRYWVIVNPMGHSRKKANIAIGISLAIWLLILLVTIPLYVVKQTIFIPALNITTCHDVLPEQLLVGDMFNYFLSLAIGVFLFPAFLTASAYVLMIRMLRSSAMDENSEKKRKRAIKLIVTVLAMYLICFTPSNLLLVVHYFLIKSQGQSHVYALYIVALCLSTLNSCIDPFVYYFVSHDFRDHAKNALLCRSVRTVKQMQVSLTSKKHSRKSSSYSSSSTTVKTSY
# PAR2 [2] = target: T2, PAR2 (Rattus norvegicus, UniProt Q63645); assay: Acute inflammatory model: PAR2-induced paw oedema; type: in vivo; conditions: Wistar rat, 10 mg/kg p.o. in olive oil, n=3; agonist 350 μg/paw 2 h after oral dose
# T2 construct: from tissue; host or cells: paw of living male Wistar rats
# T2 sequence (Q63645 26-397): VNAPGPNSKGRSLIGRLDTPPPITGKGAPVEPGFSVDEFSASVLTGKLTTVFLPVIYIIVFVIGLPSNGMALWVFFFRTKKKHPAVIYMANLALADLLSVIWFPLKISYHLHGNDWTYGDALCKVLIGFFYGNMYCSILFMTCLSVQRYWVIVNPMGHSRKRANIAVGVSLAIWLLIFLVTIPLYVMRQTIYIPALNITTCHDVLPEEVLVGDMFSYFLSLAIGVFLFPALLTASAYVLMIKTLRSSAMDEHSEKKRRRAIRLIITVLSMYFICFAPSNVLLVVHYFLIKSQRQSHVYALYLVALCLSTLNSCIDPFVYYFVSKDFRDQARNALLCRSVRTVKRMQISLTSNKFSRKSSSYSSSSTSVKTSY
# Experimental: FIG. 9. Graphical representation of the ability of PAR2 antagonists 18, 30, 42, 44 to attenuate experimental paw oedema.
# The methods used are based on those previously described (Kelso. E. B., et al. Arthritis Rheum 2007, 56, 765-71; Kelso. E. B., et al. J Pharmacol Exp Ther 2006, 316, 1017-24; and Vergnolle, N. J Immunol 1999, 163, 5064-9). Male Wistar rats (n=3 per group) are used. Briefly, rats are given either 5 or 10 mg/kg of a compound of the present invention (p.o. via gavage in olive oil, approx. 500 μL, weight adjusted). Control animals receive only olive oil (500 μL p.o.). Two hours later, the PAR2 agonist 2-furoyl-LIGRLO (350 μg/paw in saline, 100 μL) is injected into the plantar surface (i.pl.) of the right paw pad using a 30 G needle. The left paw acts as a control, receiving saline only. Paw thickness and width are measured after 30 minutes and hourly using digital calipers (World Precision Instruments, USA) and swelling is calculated in area (mm^2; thickness multiplied by width) and expressed as a percentage change from baseline of each individual paw. Results for exemplary PAR2 ligands 18, 30, 42 and 44 are illustrated in FIG. 9.
# [3] = Stability in rat liver homogenate; type: in vitro ADME; conditions: 10 μM, 37° C., up to 180 minutes
# Experimental: Blood and liver is collected form non-drug dosed male and female Wistar rats (aged 8-9 weeks, 200-250 g and 250-300 g respectively). Bloods are centrifuged at 8 K rpm for 5 min. Plasma are pooled and stored at −80° C. for later use. The rat livers are homogenized, diluted with three volumes of PBS, cloth filtered. The filtrate is used directly for stability studies.
# Lach compound is dissolved in DMSO to make […] stock solution. 10 μL of the stock is diluted with either rat plasma or liver homogenate (490 μL) to make up a starting concentration of 10 μM (triplicates). The mixtures are vortexed and incubated at 37° C. At each time point of 0, 30, 60 and 180 minutes. 100 μL of the mixture is taken and diluted with 300 μL of acetonitrile. The mixture is vortexed and centrifuged, 350 μL of the liquid is transferred into a microfuge tube and concentrated using a rotational vacuum concentrator (Christ Beta-RVC, supplied by Quantum Scientific). 100 μL of acetonitrile water (9:1, v/v) is added to the residue, vortexed and immediately analysed by LCMS/MS. Data from these experiments are expressed as percent of peak area recorded from the LCMS/MS trace at time zero (t0).
# PAR2 [4] = target: T1, PAR2; assay: PAR2 agonist inhibition (antagonism) by intracellular Ca2+ release in HT29 cells; type: cell-based; parameters: Agonists of Ca^2+ release in HT29 cells; endogenous in cells; host or cells: HT29 (human cell line, cultured per ATCC information); conditions: HT29 cells; 30 min pre-incubation, then PAR2 agonist (1 μM 2f-LIGRLO-NH2); read-out: IC50, inhibition of Ca2+ release in HT29 cells
# From the text: The ability of the compounds of the present invention to activate PAR2 may be assessed via calcium mobilisation assays. It is appreciated that compounds that activate the release of intracellular calcium from one type of cell are agonists or partial agonists, while those that inhibit such release may be antagonists. […] The general assay protocols may vary slightly depending on the chosen cell line. In general, during cell culture passage, cell dissociation solution (CDS, Sigma Aldrich) is used to replace trypsin to dissociate cells from surface. Lipopolysaccharide (LPS) and trypsin are purchased from Sigma Aldrich. […] ELISA sets are purchased from BD Pharmingen (San Jose, Calif.) and cytokine array kits are purchased from RayBiotecho (Norcross, Ga.).
# Cells are seeded overnight in 96-well black walled, clear bottomed, plate at approximately 2×10^4 to 4×10^5 cells per well. […] The cells are then washed twice with HBSS and transferred to a Polarstar spectrotluorimeter (BMG, Durham N.C.).
# The cells are prepared as outlined above then treated with the “putative” antagonist 30 min prior to the addition of either trypsin or a synthetic agonist at a concentration equal to the agonists ED80.
# The cells were then treated with 1 μM of the PAR2 agonist 2f-LIGRLO-NH2 (FIG. 2A. n=5) or 100 nM Trypsin (FIG. 2B, n=1). Each data point represents mean±SEM. Net changes in fluorescence were calculated as a percentage relative to the maximum response given 1 μM 2f-LIGRLO-NH2 or 100 nM Trypsin. Changes in fluorescence (% response) were plotted against logarithmic compound concentrations. The half maximal inhibitory concentration (IC50) values were derived from the dose response curve using a nonlinear regression curve in Graphpad Prism v5.
Molecule,Selectivity for PAR2 over PAR1 (PAR2 [1]),Agonist potency relative to SLIGRL-NH2 (PAR2 [1]; higher agonist potency than SLIGRL-NH2) [fold],Paw swelling induced by 2-f-LIGRLO-NH2 (PAR2 [2]),Stability in rat liver homogenate [3],IC50 (PAR2 [4]) [nM]
2-furoyl-LIGRL-NH2,selective for PAR2 over PAR1,~20,–,–,–
"CC[C@H](C)[C@H](NC(=O)[C@H](CC1CCCCC1)NC(=O)c1ccno1)C(=O)NCc1ccccc1OC [Compound 18, 5-isoxazoyl-Cha-Ile-aminomethyl-(2-methoxy)phenyl]",–,–,reduced the paw swelling,decomposed to varied degree,500 ± 100
"CC[C@H](C)[C@H](NC(=O)[C@H](CC1CCCCC1)NC(=O)c1ccno1)C(=O)N1CCC(c2ccccc2)CC1 [Compound 30, 5-isoxazoyl-Cha-Ile-(4-phenyl)piperidine]",–,–,reduced the paw swelling,decomposed to varied degree,–
"CC[C@H](C)[C@H](NC(=O)[C@H](CC1CCCCC1)NC(=O)c1cc(N)no1)C(=O)N1CCC2(C=Cc3ccccc32)CC1 [Compound 42, 5-(3-amino-isoxazoyl)-Cha-Ile-spiro[indene-1,4′-piperidine]]",–,–,reduced the paw swelling,decomposed to varied degree,–
"CO[C@H](C)[C@H](NC(=O)[C@H](CC1CCCCC1)NC(=O)c1ccno1)C(=O)N1CCC2(C=Cc3ccccc32)CC1 [Compound 44, 5-isoxazoyl-Cha-Thr(Me)-spiro[indene-1,4′-piperidine]]",–,–,reduced the paw swelling,decomposed to varied degree,1000
